Values quoted from earlier work in patent publication US10646533B2, “Absorption enhancer for polyphenol” (priority 2015, dated 2020).
Where two headings read alike, the source gives them in different places.

Legend:
[1] = orally ingested, human
[2] = orally ingested, rat

O=C(O[C@@H]1Cc2c(O)cc(O)cc2O[C@@H]1c1cc(O)c(O)c(O)c1)c1cc(O)c(O)c(O)c1 [epigallocatechin gallate]
migration rate into blood [1]: about 2% | migration rate into blood [2]: about 2%
